Data as given in patent publication US20250051347A1, “BIFUNCTIONAL CHIMERIC HETEROCYCLIC COMPOUND AND USE THEREOF AS ANDROGEN RECEPTOR DEGRADER” (Hinova Pharmaceuticals, Inc., priority 2021, published 2025).
Like-named read-outs stand apart in the source and are kept apart here.

Columns and labels:
[1] = target: T1, androgen receptor (AR) splicing variant AR-v7 (Homo sapiens, UniProt P10275); assay: Degradation activity on androgen receptor splicing variant AR-v7 in 22RV1 cells (ELISA); type: cell-based; details: AR-v7 degradation in 22RV1 cells, 48 h, class symbols
T1 construct: The degradation activity of compounds on AR-v7 in 22RV1 cells; host or cells: 22RV1 cells
T1 sequence (P10275 1-644 isoform P10275-3): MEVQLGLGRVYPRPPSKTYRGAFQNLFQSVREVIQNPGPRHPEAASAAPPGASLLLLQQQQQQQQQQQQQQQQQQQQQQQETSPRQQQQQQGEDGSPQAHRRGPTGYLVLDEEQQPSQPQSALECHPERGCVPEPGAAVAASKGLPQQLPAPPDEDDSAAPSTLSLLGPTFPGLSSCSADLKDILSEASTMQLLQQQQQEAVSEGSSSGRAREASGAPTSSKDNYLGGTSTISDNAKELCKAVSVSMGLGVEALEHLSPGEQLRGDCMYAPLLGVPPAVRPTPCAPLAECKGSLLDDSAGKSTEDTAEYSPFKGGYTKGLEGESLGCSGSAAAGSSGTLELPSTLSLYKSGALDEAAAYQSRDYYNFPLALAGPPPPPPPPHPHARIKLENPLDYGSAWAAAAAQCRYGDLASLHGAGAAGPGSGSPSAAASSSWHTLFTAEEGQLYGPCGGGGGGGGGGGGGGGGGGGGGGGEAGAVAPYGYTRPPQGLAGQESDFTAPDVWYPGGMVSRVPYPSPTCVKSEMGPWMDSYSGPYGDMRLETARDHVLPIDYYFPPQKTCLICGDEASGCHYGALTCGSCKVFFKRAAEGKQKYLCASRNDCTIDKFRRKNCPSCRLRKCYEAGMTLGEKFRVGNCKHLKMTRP

[2] = Homo sapiens, 22Rv1, 144 h, read-out: 22RV1 IC50 (nM), 22RV1 cells, 6 days culture, CCK-8, OD 450 nm

Row | SMILES | DC50 [1] | IC50 (22RV1 cells; [2]) | IC50 (22RV1 cells; read-out: 22RV1 IC50, 22RV1 cells, 6 days culture, CCK-8, OD 450 nm)
1 | CC(=O)c1nccc(COc2ccc(C(C)(C)c3ccc(OCCCNc4ccc5c(c4)C(=O)N(C4CCC(=O)NC4=O)C5=O)cc3)cc2)n1 (centres unmarked) [Example 343, 5-((3-(4-(2-(4-((2-acetylpyrimidin-4-yl)methoxy)phenyl)isopropan-2-yl)phenoxy)propyl)amino)-2-(2,6-dioxopiperidin-3-yl)isoindolin-1,3-dione] | 11 to 100 nM | 19 nM | 
2 | CCC(CC)(c1ccc(Oc2ccc(C(C)=O)nn2)cc1)c1ccc(OC2CC(Nc3ccc4c(c3)C(=O)N(C3CCC(=O)NC3=O)C4=O)C2)cc1 (centres unmarked) [Example 431, 5-((1s,3s)-3-(4-(3-(4-((6-acetylpyridazine-3-yl)oxy)phenyl)pentan-3-yl)phenoxy)cyclobutyl)amino)-2-(2,6-dioxopyridin-3-yl)isoindol-1,3-dione] | < 10 nM |  | 4 nM
3 | CC(O)c1ccc(Oc2ccc(C(C)(C)c3ccc(O[C@H]4C[C@H](Nc5ccc6c(c5)C(=O)N(C5CCC(=O)NC5=O)C6=O)C4)cc3)cc2)cn1 (some centres unmarked) [Example 123] | < 10 nM | 7 nM | 
4 | CC(C)(c1ccc(OCc2ccnc(N3CCC[C@@H](O)C3)n2)cc1)c1ccc(O[C@H]2C[C@@H](Nc3ccc4c(c3)C(=O)N(C3CCC(=O)NC3=O)C4=O)C2)cc1 (some centres unmarked) [Example 397] | < 10 nM | 13 nM | 
5 | CC(=O)c1ncc(Oc2ccc(C(C)c3ccc(O[C@H]4C[C@H](Nc5ccc6c(c5)C(=O)N(C5CCC(=O)NC5=O)C6=O)C4)cn3)cc2)cn1 (some centres unmarked) [Example 220] | < 10 nM | 8 nM | 
6 | CC(C)(c1ccc(Oc2cccnn2)cc1)c1ccc(O[C@H]2C[C@H](Nc3ccc4c(c3)C(=O)N(C3CCC(=O)NC3=O)C4=O)C2)cc1 (some centres unmarked) [Example 333, 2-(2,6-dioxopiperidin-3-yl)-5-((1r,3r)-3-(4-(2-(4-(pyridazine-3-oxy)phenyl)propan-2-yl)phenoxy)cyclobutyl)aminoisoindolin-1,3-dione] | < 10 nM | 3 nM | 
7 | CNc1nccc(COc2ccc(C(C)(C)c3ccc(OCCCNc4ccc5c(c4)C(=O)N(C4CCC(=O)NC4=O)C5=O)cc3)cc2)n1 (centres unmarked) [Example 390] | 11 to 100 nM | 26 nM | 
8 | COc1nccc(COc2ccc(C(C)(C)c3ccc(OC4CC(Nc5ccc6c(c5)C(=O)N(C5CCC(=O)NC5=O)C6=O)C4)cc3)cc2)n1 (centres unmarked) [Example 447, 2-(2,6-dioxopiperidin-3-yl)-5-((3-(4-(2-(4-((2-methoxypyrimidin-4-yl)methoxy)phenyl)propan-2-yl)phenoxy)cyclobutyl)amino) isoindolin-1,3-dione] | < 10 nM | 8 nM | 

Continued, values first:

Row | DC50 [1] | IC50 (22RV1 cells; [2]) | IC50 (22RV1 cells; read-out: 22RV1 IC50, 22RV1 cells, 6 days culture, CCK-8, OD 450 nm) | SMILES
9 | 11 to 100 nM | 18 nM |  | CC(C)(c1ccc(Oc2cc(-n3nccn3)ccn2)cc1)c1ccc(O[C@H]2C[C@H](Nc3ccc4c(c3)C(=O)N(C3CCC(=O)NC3=O)C4=O)C2)cc1 (some centres unmarked) [Example 168]
10 | 11 to 100 nM | 30 nM |  | CCC(CC)(c1ccc(OCCCNc2ccc3c(c2)C(=O)N(C2CCC(=O)NC2=O)C3=O)cc1)c1ccc(OCc2ccnc(C(C)=O)n2)cc1 (centres unmarked) [Example 350, 5-((3-(4-(3-(4-((2-acetylpyrimidin-4-yl)methoxy)phenyl)pentan-3-yl)phenoxy)propyl)amino)-2-(2,6-dioxopiperidin-3-yl)isoindolin-1,3-dione]
11 | < 10 nM | 10 nM |  | CN(C)C1CN(c2nccc(COc3ccc(C(C)(C)c4ccc(O[C@H]5C[C@@H](Nc6ccc7c(c6)C(=O)N(C6CCC(=O)NC6=O)C7=O)C5)cc4)cc3)n2)C1 (some centres unmarked) [Example 400]
12 | 11 to 100 nM | 56 nM |  | CC(C)(c1ccc(OCCCNc2ccc3c(c2)C(=O)N(C2CCC(=O)NC2=O)C3=O)cc1)c1ccc(OCc2nc(CO)co2)cc1 (centres unmarked) [Example 185, 2-(2,6-dioxopiperidin-3-yl)-5-((3-(4-(2-(4-((4-(hydroxylmethyl)oxazol-2-yl)methoxy)phenyl)propan-2-yl)phenoxy)propyl)amino)isoindolin-1,3-dione]
13 | < 10 nM | 7 nM |  | Cc1nnc(-c2nccc(Oc3ccc(C(C)(C)c4ccc(O[C@H]5C[C@H](Nc6ccc7c(c6)C(=O)N(C6CCC(=O)NC6=O)C7=O)C5)cc4)cc3)n2)o1 (some centres unmarked) [Example 289]
